Assay results taken from the supplement of paper PMC10307832.

Assays:
Assay in all cases: relative viability (nuclei count vs DMSO), 5 days (fraction); higher = more cells survive
[1] = compound: CN(c1ncccc1CNc1nc(Nc2ccc3c(c2)CC(=O)N3)ncc1C(F)(F)F)S(C)(=O)=O + COc1cccc2cc(-c3nc([C@H]4CC[C@H](C(=O)O)CC4)n4ncnc(N)c34)[nH]c12 [OSI-027] (partner 0.5 µM)
How it was run: (§1)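 For relative viability, nuclei counts in treated wells were divided by those in vehicle wells. Lung cancer cell lines had been pin-tool dosed in 1536-well plates the day after seeding and cultured for 5 days, then fixed and stained in one step (final 0.05% Triton X-100, 1% formaldehyde, 1 ug/ml Hoechst) and imaged at 4×. Doses were one drug alone or a fixed anchor-drug dose plus five library-drug doses (not always all listed) in √10 steps, and values are duplicate-plate medians.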

[2] = compound: CN(c1ncccc1CNc1nc(Nc2ccc3c(c2)CC(=O)N3)ncc1C(F)(F)F)S(C)(=O)=O + CS(=O)(=O)CCNCc1ccc(-c2ccc3ncnc(Nc4ccc(OCc5cccc(F)c5)c(Cl)c4)c3c2)o1 [Lapatinib] (partner 2 µM)
How it was run: as §1

[3] = compound: CN(c1ncccc1CNc1nc(Nc2ccc3c(c2)CC(=O)N3)ncc1C(F)(F)F)S(C)(=O)=O + C[C@]1(O)C[C@@H](c2nc(-c3ccc4ccc(-c5ccccc5)nc4c3)c3c(N)nccn32)C1 [Linsitinib] (partner 1 µM)
How it was run: as §1

[4] = compound: CN(c1ncccc1CNc1nc(Nc2ccc3c(c2)CC(=O)N3)ncc1C(F)(F)F)S(C)(=O)=O + Cc1nc(NC(=O)N2CCC[C@H]2C(N)=O)sc1-c1ccnc(C(C)(C)C(F)(F)F)c1 [Alpelisib] (partner 2 µM)
How it was run: as §1

Cell Line	relative viability ([1]; first compound 0.01 µM)	relative viability ([1]; first compound 0.03162 µM)	relative viability ([1]; first compound 0.1 µM)	relative viability ([1]; first compound 0.3162 µM)	relative viability ([1]; first compound 1 µM)	relative viability ([2]; first compound 0.01 µM)	relative viability ([2]; first compound 0.03162 µM)	relative viability ([2]; first compound 0.1 µM)	relative viability ([2]; first compound 0.3162 µM)	relative viability ([2]; first compound 1 µM)	relative viability ([3]; first compound 0.01 µM)	relative viability ([3]; first compound 0.03162 µM)	relative viability ([3]; first compound 0.1 µM)	relative viability ([3]; first compound 0.3162 µM)	relative viability ([3]; first compound 1 µM)	relative viability ([4]; first compound 0.01 µM)	relative viability ([4]; first compound 0.03162 µM)	relative viability ([4]; first compound 0.1 µM)	relative viability ([4]; first compound 0.3162 µM)	relative viability ([4]; first compound 1 µM)
NCI-H2405	0.617	0.676	0.572	0.51	0.533	1.16	1.08	0.995	1.02	0.91	0.899	0.935	0.818	0.865	0.824	0.837	0.757	0.719	0.72	0.727
NCI-H3122	0.976	1.07	0.762	1.06	0.954	1.02	1.08	1.01	0.956	0.876	1.02	1.06	0.939	0.966	0.843	0.748	0.982	0.684	0.822	0.728
PC-3 [JPC-3]	0.722	0.742	0.739	0.805	0.768	0.441	0.395	0.446	0.471	0.432	0.984	1.01	0.938	0.925	0.835	0.993	1.14	0.941	1.02	0.952
PC-14	0.931	1.05	0.895	1.13	0.809	0.366	0.373	0.292	0.323	0.33	0.976	1	1.06	0.961	1.01	1.02	1.07	0.982	0.951	0.869
RERF-LC-KJ	0.632	0.585	0.529	0.656	0.573	0.926	0.988	0.854	0.886	0.91	0.838	0.964	0.877	0.83	0.933	0.838	0.955	0.813	0.765	0.825
SK-LU-1	0.343	0.411	0.371	0.351	0.284	0.885	1.13	0.912	0.722	0.874	0.936	1.12	0.966	1.02	0.97	0.929	1.25	0.988	0.988	0.928
SK-MES-1	0.562	0.571	0.475	0.491	0.429	0.456	0.456	0.473	0.422	0.474	1.04	1.06	1.08	0.925	1.01	0.915	0.926	0.843	0.882	0.712
SW 1573	0.549	0.669	0.569	0.738	0.559	1.18	1.09	1.21	1.27	1.08	0.926	0.635	0.754	0.863	0.867	0.73	1.08	0.628	0.922	0.778
UMC-11	0.461	0.477	0.45	0.459	0.421	1.03	1.06	0.866	0.995	0.678	0.979	1.02	1.03	0.952	0.781	1	1.06	0.901	0.809	0.787
